What all share (assay type): cell-based
Assay [1] deals with IL-17A. The assay can be described thus: IL-17 release from differentiated primary human T-cells (IL-17A HTRF assay). The following applies: primary human CD4+ T cells differentiated into Th17 cells, 45-hour incubation, IL-17A in supernatant; read-out: hIL17 IC50. A digest of the protocol:
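Primary human CD4+ T cells (~2×10^5/well) given compound (2–500 or 4–1000 nM, 0.1% DMSO), CD3/CD28-activated and Th17-differentiated (TGF-β, IL-6, IL-23, IL-1β) for 45 h at 37° C. Supernatant IL-17A by HTRF against standard curve, normalized to vehicle; IC50 by variable-slope regression, with parallel CyQuant viability.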

In assay [2] the test system is Nrf2 transcription factor. The assay can be described thus: AREc32 luciferase reporter assay. The following applies: Homo sapiens; AREc32 cells, 19 hours; concentration required to increase GST ARE luciferase reporter activity by 2-fold; read-out: NRF2 ARE 2-Fold (EC2×). A digest of the protocol:
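AREc32 cells (MCF-7 with firefly luciferase under eight rat GSTA2 ARE copies) treated 19 h with compound (0.4-200 nM or 3.9-2000 nM) in triplicate. Luminescence normalized to DMSO as fold-induction, capped at 50-fold. EC2× = concentration giving 2-fold reporter increase, interpolated from variable-slope fit.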

The target in assay [3] is T1, Human RAR-related Orphan Receptor Gamma (RORγ) (Homo sapiens, UniProt P51449).
T1 sequence (P51449 269-508 limits assumed): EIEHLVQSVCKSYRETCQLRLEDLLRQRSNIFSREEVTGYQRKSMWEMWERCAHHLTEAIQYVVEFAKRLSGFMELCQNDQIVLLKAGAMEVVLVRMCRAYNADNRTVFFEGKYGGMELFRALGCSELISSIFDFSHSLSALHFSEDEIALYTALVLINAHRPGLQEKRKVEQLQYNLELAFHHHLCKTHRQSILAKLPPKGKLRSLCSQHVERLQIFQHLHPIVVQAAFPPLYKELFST
As to the kind of experiment: RORγ assay (GAL4-RORγ hybrid luciferase reporter, Indigo Biosciences). The following applies: inverse-agonist activity, GAL4-RORγ reporter cells, 23 hours. An outline of the steps:
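[…]engineered human reporter cell line expressing GAL4-DBD/RORγ-LBD hybrid with GAL4-UAS luciferase; constitutive activity measured as inverse agonism. Cells treated with compound (7.8-2000 nM) for 23 h at 37 °C; luminescence normalized to DMSO, IC50 by variable-slope fit, with parallel viability readout to flag non-specific inhibition.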

Structures are written as SMILES. pIC50: −log10 of the molar value.

For the compound `C[C@H]1C(=O)C(C#N)=C[C@@]2(C)c3c(c(-c4ccccc4)nn3-c3ccnc4ccccc34)CC[C@H]12` [T8], the pIC50 in assay [1] was 7.14; in assay [3] it was 7.09. The EC (2-fold) in assay [2] came out at 0.426 µM.
The like results for `C[C@H]1C(=O)C(C#N)=C[C@@]2(C)c3nc(Cc4ccccc4)n(-c4cccc(F)c4)c3CC[C@H]12` [T140] were, in that order, 6.54, 6.95 and 1.27 µM.
In the case of `C[C@H]1C(=O)C(C#N)=C[C@@]2(C)c3c(c(-c4ccccc4F)nn3-c3ccc(-c4cncnc4)cc3)CC[C@H]12` [T82], the pIC50 was 7.20 in assay [1] and 7.36 in assay [3]. In addition, the EC (2-fold) in assay [2] was determined as 0.208 µM.
Turning to `C[C@H]1C(=O)C(C#N)=C[C@@]2(C)c3nc(-c4cccc(-c5cncc(F)c5)c4)n(-c4cccc(F)c4)c3CC[C@H]12` [T148], the figures for the pIC50 in assay [1] and in assay [3] were 7.07 and 6.83, respectively. For the same compound, the EC (2-fold) in assay [2] was found to be 0.566 µM.
`C[C@H]1C(=O)C(C#N)=C[C@@]2(C)c3c(c(-c4ccccc4)nn3-c3ccc(-c4ccccc4F)cc3)CC[C@H]12` [T36]: the results for the pIC50 in assay [1] and in assay [3] were 7.66 and 7.06, respectively. The EC (2-fold) in assay [2] is 0.233 µM.
Take `C[C@H]1C(=O)C(C#N)=C[C@@]2(C)c3c(c(-c4ccncn4)nn3-c3ccc(-c4ccccc4)cn3)CC[C@H]12` [T59]: the pIC50 is 7.00 in assay [1] and 6.95 in assay [3]. Also, in assay [2], the EC (2-fold) is 0.449 µM.
Take `C[C@H]1C(=O)C(C#N)=C[C@@]2(C)c3nn(-c4ccc(Cl)c(Cl)c4)c(-c4ccccc4)c3CC[C@H]12` [T117]: the pIC50 in assay [1] is 6.97; in assay [3], 6.94. In addition, in assay [2], the EC (2-fold) was found to be 0.834 µM.
For `C[C@H]1C(=O)C(C#N)=C[C@@]2(C)c3c(c(C4CCCCC4)nn3-c3ccc(-c4ccccc4)cc3)CC[C@H]12` [T76], the pIC50 was 7.52 in assay [1] and 7.14 in assay [3]. Moreover, the EC (2-fold) in assay [2] came out at 0.465 µM.
Taken in the same sequence, the figures for `C[C@H]1C(=O)C(C#N)=C[C@@]2(C)c3c(c(C4CC4)nn3-c3ccc(-c4ccccc4)cc3)CC[C@H]12` [T75] were 6.89, 7.17 and 0.248 µM.
Turning to `C[C@H]1C(=O)C(C#N)=C[C@@]2(C)c3nn(-c4ccccc4)c(-c4ccccc4)c3CC[C@H]12` [T115], the pIC50 in assay [1] was 6.54; in assay [3] it was 7.11. In addition, in assay [2], the EC (2-fold) was found to be 0.466 µM.
Taken in the same sequence, the figures for `C[C@H]1C(=O)C(C#N)=C[C@@]2(C)c3c(c(-c4ccncn4)nn3-c3ccc(C(F)(F)F)cn3)CC[C@H]12` [T63] were 6.82, 6.70 and 0.725 µM.
With `Cc1nc(-c2ccc(-n3nc(-c4cccnc4)c4c3[C@]3(C)C=C(C#N)C(=O)[C@H](C)[C@H]3CC4)cc2)no1` [T184], the pIC50 in assay [1] was 7.12; in assay [3], 6.94. The EC (2-fold) in assay [2] came to 0.398 µM.
On to `C[C@H]1C(=O)C(C#N)=C[C@@]2(C)c3c(c(-c4ccccc4)nn3-c3ccncc3)CC[C@H]12` [T7], for which the pIC50 is 6.77 in assay [1] and 6.80 in assay [3]. In addition, the EC (2-fold) in assay [2] worked out at 0.265 µM.
On to `CC(C)c1ccc(-c2nc3c(n2CCO)CC[C@@H]2[C@@H](C)C(=O)C(C#N)=C[C@@]32C)cc1` [T172], for which the figures for the pIC50 in assay [1] and in assay [3] were < 6.30 and 6.75, respectively. Further, the EC (2-fold) in assay [2] is > 2 µM.
Regarding `C[C@H]1C(=O)C(C#N)=C[C@@]2(C)c3c(c(-c4ccccc4)nn3-c3cccc(-c4cccnc4)c3)CC[C@H]12` [T34], the pIC50 in assay [1] and in assay [3] was 7.06 throughout. Further, the EC (2-fold) in assay [2] stood at 0.245 µM.
As to `C[C@H]1C(=O)C(C#N)=C[C@@]2(C)c3c(c(-c4ccccn4)nn3-c3ccc(-c4ccccc4)cc3)CC[C@H]12` [T81], the values for the pIC50 in assay [1] and in assay [3] were 7.52 and 7.17, respectively. For the same compound, in assay [2], the EC (2-fold) turned out to be 0.243 µM.
The like results for `C[C@H]1C(=O)C(C#N)=C[C@@]2(C)c3c(c(-c4ccccc4)nn3-c3ccc(-c4ccccc4)cc3)CC[C@H]12` [T21] were, in that order, 7.72, 7.10 and 0.161 µM.
On to `C[C@H]1C(=O)C(C#N)=C[C@@]2(C)c3nn(C4CCCCC4)c(-c4ccccc4)c3CC[C@H]12` [T1], for which the results for the pIC50 in assay [1] and in assay [3] were 7.19 and 6.76, respectively. For the same compound, the EC (2-fold) in assay [2] came out at 1.45 µM.
The like results for `C[C@H]1C(=O)C(C#N)=C[C@@]2(C)c3c(c(-c4ccccc4F)nn3-c3ccc(-c4ccncn4)cc3)CC[C@H]12` [T93] were, in that order, 7.43, 7.38 and 0.139 µM.
As to `C[C@H]1C(=O)C(C#N)=C[C@@]2(C)c3c(c(-c4cccnc4)nn3-c3ccc(-c4cncc(F)c4)cc3)CC[C@H]12` [T103], the values for the pIC50 in assay [1] and in assay [3] were 7.51 and 7.33, respectively. Besides, the EC (2-fold) in assay [2] turned out to be 0.365 µM.
On to `C[C@H]1C(=O)C(C#N)=C[C@@]2(C)c3c(c(-c4ccccc4F)nn3-c3nc4ccc(Cl)cc4s3)CC[C@H]12` [T89], for which the pIC50 in assay [1] was 7.89; in assay [3] it was 6.60. The EC (2-fold) in assay [2] was 0.482 µM.
Turning to `C[C@H]1C(=O)C(C#N)=C[C@@]2(C)c3c(c(-c4ccccc4)nn3-c3ccc(Cl)c(Cl)c3)CC[C@H]12` [T10], the values for the pIC50 in assay [1] and in assay [3] were 7.11 and 7.06, respectively. Besides, the EC (2-fold) in assay [2] was determined as 0.26 µM.
Taken in the same sequence, the figures for `C[C@H]1C(=O)C(C#N)=C[C@@]2(C)c3c(c(-c4ccccc4F)nn3-c3ccc(-c4ccccc4)cc3)CC[C@H]12` [T66] were 7.72, 7.24 and 0.128 µM.
In the case of `Cc1nc(-c2ccc(-n3nc(-c4ccccc4F)c4c3[C@]3(C)C=C(C#N)C(=O)[C@H](C)[C@H]3CC4)cc2)no1` [T94], the pIC50 in assay [1] is 7.62; in assay [3] it was 7.19. In addition, the EC (2-fold) in assay [2] is 0.146 µM.
Turning to `C[C@H]1C(=O)C(C#N)=C[C@@]2(C)c3nc(-c4cccc5ncccc45)n(-c4cccc(F)c4)c3CC[C@H]12` [T136], the pIC50 in assay [1] is 6.84; in assay [3], 6.72. In addition, the EC (2-fold) in assay [2] came out at 0.753 µM.
Turning to `Cc1cc(-c2ccc(-n3nc(-c4ccc(F)cc4)c4c3[C@]3(C)C=C(C#N)C(=O)[C@H](C)[C@H]3CC4)cc2)cnn1` [T177], the negative-log IC50 (pIC50) in assay [1] is 8.05; in assay [3] it was 7.28. The EC (2-fold) in assay [2] worked out at 0.271 µM.
In the case of `C[C@H]1C(=O)C(C#N)=C[C@@]2(C)c3c(c(-c4ccccc4F)nn3-c3ccc(N4CCOCC4)cc3)CC[C@H]12` [T85], the pIC50 in assay [1] was 7.34; in assay [3] it was 7.30. Moreover, in assay [2], the EC (2-fold) was 0.079 µM.
For `C[C@H]1C(=O)C(C#N)=C[C@@]2(C)c3nc(-c4cnc5ccccc5c4)n(-c4cccc(F)c4)c3CC[C@H]12` [T137], the pIC50 in assay [1] is 6.62; in assay [3], 7.03. In addition, in assay [2], the EC (2-fold) stood at 0.618 µM.
Turning to `C[C@H]1C(=O)C(C#N)=C[C@@]2(C)c3c(c(-c4ccccc4F)nn3-c3nc(-c4ccccc4)cs3)CC[C@H]12` [T87], the pIC50 in assay [1] is 7.57; in assay [3], 6.16. For the same compound, in assay [2], the EC (2-fold) came out at 1.26 µM.
For the compound `C[C@H]1C(=O)C(C#N)=C[C@@]2(C)c3c(c(-c4ccc(F)cc4)nn3-c3ccc(-c4ccnc(CF)c4)cc3)CC[C@H]12` [T181], the pIC50 in assay [1] is 7.62; in assay [3] it was 7.22. Moreover, in assay [2], the EC (2-fold) came to 0.25 µM.
The like results for `CC(C)c1ccc(-c2nc3c(n2Cc2ccccc2F)CC[C@@H]2[C@@H](C)C(=O)C(C#N)=C[C@@]32C)cc1` [T168] were, in that order, 7.37, 6.53 and 1.29 µM.
Take `CC(C)c1ccc(-n2nc(-c3ccccc3)c3c2[C@]2(C)C=C(C#N)C(=O)[C@H](C)[C@H]2CC3)cc1` [T25]: the pIC50 is 7.55 in assay [1] and 7.04 in assay [3]. For the same compound, in assay [2], the EC (2-fold) came to 0.149 µM.
Taken in the same sequence, the figures for `C[C@H]1C(=O)C(C#N)=C[C@@]2(C)c3nc(-c4cccc(Cl)c4)n(-c4cnn(C)c4)c3CC[C@H]12` [T157] were 6.49, 6.99 and 1.28 µM.
As for `C[C@H]1C(=O)C(C#N)=C[C@@]2(C)c3c(c(-c4ccc(F)cc4)nn3-c3ccc(-c4cncc(F)c4)cc3)CC[C@H]12` [T105], the negative logarithm of the IC50 (pIC50) in assay [1] was 7.68; in assay [3], 7.17. The EC (2-fold) in assay [2] is 0.361 µM.
Regarding `C[C@H]1C(=O)C(C#N)=C[C@@]2(C)c3nc(-c4ccc(-c5ccccc5)cc4)n(-c4cccc(F)c4)c3CC[C@H]12` [T127], the values for the pIC50 in assay [1] and in assay [3] were 7.21 and 6.57, respectively. For the same compound, the EC (2-fold) in assay [2] was 1.12 µM.

Values taken from patent US11993574B2, “Pyrazole and imidazole compounds for inhibition of IL-17 and RORgamma” (REATA PHARMACEUTICALS, INC., priority 2018, dated 2024).
